In patent publication US20240116946A1 (Gilead Sciences, Inc., priority 2022, published 2024):
Where two headings read alike, the source gives them in different places.

Tests used:
[1] = target: recombinant SARS-CoV-2 Main protease (Mpro) (Severe acute respiratory syndrome coronavirus 2 (2019-nCoV) (SARS-CoV-2), UniProt P0DTD1); test: Cov Mpro Biochemical IC50 Assay
[2] = tested on: SARS-CoV-2-NLuc; test: microbe, parasite or virus in culture; assay type: cell-based, SARS Coronavirus 2
[3] = recombinant SARS-CoV-2 Mpro 7.5 nM, fluorogenic peptide substrate 40 μM, read-out: MPro IC50
[4] = Severe acute respiratory syndrome coronavirus, 48 h, read-out: MPro EC50
[5] = recombinant SARS-CoV-2 Mpro, fluorogenic peptide substrate, read-out: MPro IC50
[6] = Severe acute respiratory syndrome coronavirus, 48 h; read-out: MPro EC50

SMILES	IC50 [1, 3] [nM]	EC50 [2, 4] [nM]	also measured
COc1cc(-c2cc3[nH]c(=O)n(-c4cncc5nc(C(F)(F)F)sc45)c(=O)c3s2)c(Cl)cc1F [Example 488]	1020	618	–
COc1cnc(C#N)c(-c2cc3c(s2)c(=O)n(-c2cncc4ccccc24)c(=O)n3CCC#N)c1 (single isomer, unassigned) [Example 1092, 3-(1-(2-cyanoethyl)-3-(isoquinolin-4-yl)-2,4-dioxo-1,2,3,4-tetrahydrothieno[3,2-d]pyrimidin-6-yl)-5-methoxypicolinonitrile]	5.1	–	EC50 ([2]; read-out: MPro EC50): 11.2 nM
COc1cc(-c2cc3[nH]c(=O)n(-c4cncc(Cl)c4Cl)c(=O)c3s2)c(Cl)cc1F [Example 742]	15.2	26.2	–
Cc1c(Cl)cncc1-n1c(=O)c2sc(-c3ccc(F)cc3Cl)cc2n(CCC#N)c1=O [Example 807]	20.6	35	–
COc1cc(-c2cc3c(s2)c(=O)n(-c2cncc4ccccc24)c(=O)n3CCC#N)c(Cl)cc1Cl [Example 832]	7.71	7.16	–
Cc1ccccc1-c1cc2[nH]c(=O)n(-c3cncc4ccccc34)c(=O)c2cn1 [Example 165]	–	2470	IC50 [1, 5]: 1470 nM
COc1cc(-c2cc3c(s2)c(=O)n(-c2cncc4ccccc24)c(=O)n3CC(C)(C)C#N)c(Cl)cc1F [Example 698]	7.1	14.1	–
O=c1[nH]c2cc(-c3ccccc3Cl)ccc2c(=O)n1-c1cnccc1C1CCOCC1 [Example 129]	–	1230	IC50 [1, 5]: 1030 nM
COc1cnc(Cl)c(-c2cc3c(s2)c(=O)n(-c2cncc(C(F)F)c2)c(=O)n3CCC#N)c1 [Example 889]	14.2	–	EC50 [2, 6]: 64.8 nM
N#CCCn1c(=O)n(-c2cncc(C3CC4(COC4)C3)c2)c(=O)c2sc(-c3ccccc3Cl)cc21 [Example 1064, 3-(3-(5-(2-oxaspiro[3.3]heptan-6-yl)pyridin-3-yl)-6-(2-chlorophenyl)-2,4-dioxo-3,4-dihydrothieno[3,2-d]pyrimidin-1(2H)-yl)propanenitrile]	24	–	EC50 [2, 6]: 713 nM
COc1cc(-c2cc3[nH]c(=O)n(-c4cncc5cccc(F)c45)c(=O)c3s2)c(Cl)cc1F [Example 444, 6-(2-chloro-4-fluoro-5-methoxyphenyl)-3-(5-fluoroisoquinolin-4-yl)thieno[3,2-d]pyrimidine-2,4(1H,3H)-dione]	5.45	8.86	–
Cn1nnc2cncc(-n3c(=O)c4sc(-c5ccc(F)cc5Cl)cc4n(CCC#N)c3=O)c21 (single isomer, unassigned) [Example 1028, 3-[6-(2-chloro-4-fluoro-phenyl)-3-(1-methyltriazolo[4,5-c]pyridin-7-yl)-2,4-dioxo-thieno[3,2-d]pyrimidin-1-yl]propanenitrile]	17.9	–	EC50 ([2]; read-out: MPro EC50): 51 nM
COc1cc(C#N)c(-c2cc3[nH]c(=O)n(-c4cncc5ccccc45)c(=O)c3s2)cc1OC [Example 544]	16.8	202	–
Cc1noc(C)c1-c1ccc2c(=O)n(-c3cncc4ccccc34)c(=O)[nH]c2c1 [Example 44]	–	–	IC50 ([1]; MPro IC50, recombinant SARS-CoV-2 Mpro, fluorogenic peptide substrate): 1370 nM; EC50 [2, 6]: 3000 nM
Cn1nnc2cncc(-n3c(=O)c4sc(-c5cc(Cl)ccc5C#N)cc4n(CCC#N)c3=O)c21 [Example 886]	36.1	144	–
COc1cc(-c2cc3c(s2)c(=O)n(-c2cncc(Cl)c2)c(=O)n3CCC#N)c(Cl)cc1F [Example 985]	2.11	6.7	–
COc1ccc(Cl)c(-c2cc3[nH]c(=O)n(-c4cncc5ccc(N6CCS(=O)(=O)CC6)cc45)c(=O)c3s2)c1 [Example 226]	–	23.7	IC50 [1, 5]: 3.74 nM
COc1cc(-c2cc3[nH]c(=O)n(-c4cncc5cnn(CC(F)(F)F)c45)c(=O)c3s2)c(Cl)cc1F [Example 507]	18.8	39.2	–
COc1ccc(Cl)c(-c2ccc3c(=O)n(-c4cncc5cccnc45)c(=O)[nH]c3c2)c1 [Example 462, 7-(2-chloro-5-methoxyphenyl)-3-(1,6-naphthyridin-8-yl)quinazoline-2,4(1H,3H)-dione]	28.4	61.5	–
O=c1[nH]c2cc(-c3cccnc3)ccc2c(=O)n1-c1cncc2ccccc12 [Example 43]	–	> 50000	IC50 [1, 5]: 3120 nM
O=c1[nH]c2cc(-c3ccccc3Cl)sc2c(=O)n1-c1cncc2ccc(N3CC4(COC4)C3)cc12 [Example 397]	3.51	15.2	–
O=c1[nH]c2cc(-c3c(Cl)cccc3-c3cnc4n3CCC4)sc2c(=O)n1-c1cncc2ccccc12 [Example 529]	8.44	34.1	–
COCCOc1ccc(Cl)c(-c2ccc3c(=O)n(-c4cncc5ccccc45)c(=O)[nH]c3c2)c1 [Example 251]	–	150	IC50 [1, 5]: 68.2 nM
COc1cc(-c2cc3[nH]c(=O)n(-c4cncc5cccc(F)c45)c(=O)c3s2)c(Cl)cc1F (single isomer, unassigned) [Example 900, 6-(2-chloro-4-fluoro-5-methoxyphenyl)-3-(5-fluoroisoquinolin-4-yl)thieno[3,2-d]pyrimidine-2,4(1H,3H)-dione]	334	–	EC50 ([2]; read-out: MPro EC50): 172 nM

SMILES	IC50 [1, 3] [nM]	EC50 [2, 4] [nM]	also measured
O=c1[nH]c2cc(-c3ccccc3Cl)sc2c(=O)n1-c1cncc2sccc12 [Example 336]	–	7.02	IC50 [1, 5]: 4.68 nM
COc1cc(Cl)c(-c2cc3[nH]c(=O)n(-c4cncc5ccccc45)c(=O)c3s2)cc1F [Example 725]	8.5	19.4	–
COc1cnc(Cl)c(-c2cc3c(s2)c(=O)n(-c2cncc4cccc(F)c24)c(=O)n3CCC#N)c1 [Example 1083, 3-(6-(2-chloro-5-methoxypyridin-3-yl)-3-(5-fluoroisoquinolin-4-yl)-2,4-dioxo-3,4-dihydrothieno[3,2-d]pyrimidin-1(2H)-yl)propanenitrile]	11.1	–	EC50 [2, 6]: 36.6 nM
N#CCCn1c(=O)n(-c2cccnc2)c(=O)c2sc(-c3cc(F)c(F)cc3Cl)cc21 [Example 803]	25.9	–	EC50 [2, 6]: 91.5 nM
O=c1[nH]c2cc(-c3ccccc3Cl)sc2c(=O)n1-c1cnnc2ccccc12 [Example 131]	–	633	IC50 [1, 5]: 97 nM
N#CCCn1c(=O)n(-c2cncc3ccccc23)c(=O)c2sc(-c3ccccc3Cl)cc21 [Example 818, 3-(6-(2-chlorophenyl)-3-(isoquinolin-4-yl)-2,4-dioxo-3,4-dihydrothieno[3,2-d]pyrimidin-1(2H)-yl)propanenitrile]	7.61	6.21	–
COc1cc(-c2cc3c(s2)c(=O)n(-c2cncc4cnsc24)c(=O)n3CCC#N)c(Cl)cc1F [Example 922]	2.8	> 1000	–
Cc1cccc(C#N)c1-c1cc2c(s1)c(=O)n(-c1cncc3cnn(C)c13)c(=O)n2CCC#N [Example 783]	199	455	–
COc1cc(-c2cc3c(s2)c(=O)n(-c2cncc4ccccc24)c(=O)n3CC2(C#N)CC2)c(Cl)cc1F (single isomer, unassigned) [Example 635, 1-[[6-(2-chloro-4-fluoro-5-methoxy-phenyl)-3-(4-isoquinolyl)-2,4-dioxo-thieno[3,2-d]pyrimidin-1-yl]methyl]cyclopropanecarbonitrile]	3.26	–	EC50 ([2]; read-out: MPro EC50): 1.78 nM
N#CCCn1c(=O)n(-c2cncc3ccccc23)c(=O)c2sc(-c3ccc(F)cc3Cl)cc21 [Example 827]	10.2	10.4	–
Cc1ccc(-c2cc3[nH]c(=O)n(-c4cncc5ccccc45)c(=O)c3s2)c(Cl)c1 [Example 339]	–	48.2	IC50 [1, 5]: 14.8 nM
Cn1ncc2cncc(-n3c(=O)c4sc(-c5ccc(F)cc5Cl)cc4n(CCC#N)c3=O)c21 [Example 769, 3-(6-(2-chloro-4-fluorophenyl)-3-(1-methyl-1H-pyrazolo[4,3-c]pyridin-7-yl)-2,4-dioxo-3,4-dihydrothieno[3,2-d]pyrimidin-1(2H)-yl)propanenitrile]	8.55	–	EC50 [2, 6]: 15.6 nM
COc1ccc(Cl)c(-c2cc3[nH]c(=O)n(-c4cncc5nc(C67CC(F)(C6)C7)n(C)c45)c(=O)c3s2)c1 [Example 436]	164	–	EC50 [2, 6]: 489 nM
COc1ccc(C#N)c(-c2cc3[nH]c(=O)n(-c4cncc5ccc(OC)cc45)c(=O)c3s2)c1 [Example 626]	7.68	32.2	–
O=c1[nH]c2cc(-c3c(Cl)cccc3-c3ccc4nccn4c3)ccc2c(=O)n1-c1cncc2ccccc12 [Example 147]	–	17.1	IC50 [1, 5]: 11 nM
O=c1[nH]c2cc(-c3c(Cl)cccc3-c3cnn4c3COCC4)ccc2c(=O)n1-c1cncc2ccccc12 [Example 305]	–	12.8	IC50 [1, 5]: 8.8 nM
O=c1[nH]c2cc(-c3ccccc3Cl)sc2c(=O)n1-c1cncc2ccc(N3C[C@H]4C[C@@H]3CO4)cc12 [Example 394]	5.1	5.75	–
Cc1n[nH]cc1-c1cccc(Cl)c1-c1ccc2c(=O)n(-c3cncc4ccccc34)c(=O)[nH]c2c1 [Example 261]	–	98.6	IC50 [1, 5]: 79 nM
N#Cc1cc(F)ccc1-c1cc2[nH]c(=O)n(-c3cncc4ccccc34)c(=O)c2s1 [Example 534]	30.6	80.5	–
COc1ccc(Cl)c(-c2cc3[nH]c(=O)n(-c4cncc5ncsc45)c(=O)c3s2)c1 [Example 485]	9.6	62.6	–
CC(C)(C)OC(=O)N1CCn2ncc(-c3cccc(Cl)c3-c3ccc4c(=O)n(-c5cncc6ccccc56)c(=O)[nH]c4c3)c2C1 [Example 271]	–	208	IC50 [1, 5]: 155 nM
COc1cc(-c2cc3c(s2)c(=O)n(-c2cncc4ccc(C#CC(C)(C)O)cc24)c(=O)n3CCC#N)c(Cl)cc1F [Example 947]	7.28	14.2	–
COc1ccc(Cl)c(-c2cc3[nH]c(=O)n(-c4cncc5ccccc45)c(=O)c3cc2OC)c1 [Example 309]	–	26.7	IC50 [1, 5]: 56.9 nM
